Consider two compounds from ChEMBL document CHEMBL5209577, “Flow cytometry transport assay for SLC2A1 using HEK293 JumpIN TRex SLC2A1 WT-OE cells” (2022).

The test deals with T1, Solute carrier family 2, facilitated glucose transporter member 1 (Homo sapiens, UniProt P11166).
T1 sequence (P11166 whole entry): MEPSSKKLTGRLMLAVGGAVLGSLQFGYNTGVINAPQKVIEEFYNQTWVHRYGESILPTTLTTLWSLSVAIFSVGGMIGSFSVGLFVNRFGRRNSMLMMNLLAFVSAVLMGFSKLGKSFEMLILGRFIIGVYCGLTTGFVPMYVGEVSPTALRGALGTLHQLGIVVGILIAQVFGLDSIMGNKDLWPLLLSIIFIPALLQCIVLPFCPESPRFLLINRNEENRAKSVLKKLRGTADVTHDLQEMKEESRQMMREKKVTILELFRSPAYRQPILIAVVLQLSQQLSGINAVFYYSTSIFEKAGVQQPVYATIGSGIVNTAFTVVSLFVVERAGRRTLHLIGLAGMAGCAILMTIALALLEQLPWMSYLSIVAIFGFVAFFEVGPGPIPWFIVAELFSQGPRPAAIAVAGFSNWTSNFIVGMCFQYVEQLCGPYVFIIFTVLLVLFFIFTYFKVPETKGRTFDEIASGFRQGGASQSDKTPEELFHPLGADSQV
As to the kind of experiment: Inhibition of the Glucose Transporter (GLUT1, SLC2A1) as assessed by a FRET based flow cytometry assay using a genetically-encoded biosensor for measuring free glucose (FLII12Pglu-700uDelta6) in HEK293 JumpIN TRex SLC2A1 WT-OE cells (PubChem AID: 1794830). It counts as functional, cell-based.

Some results are limits rather than exact numbers.

The compound `OC[C@H]1OC(O)[C@H](O)[C@@H](O)[C@@H]1O` (some centres not stated) [DEXTROSE] returned an EC50 of 527 µM.

`O=C(Oc1cccc(F)c1OC(=O)c1cccc(O)c1)c1cccc(O)c1` registered an IC50 of over 10 µM.
